IC50 data for 18 compounds are collected here from patent US11071735B2, “Treatment of inflammatory conditions and autoimmune diseases with glucose uptake inhibitors” (Kadmon Corporation, LLC, priority 2017, dated 2021).

What all share (assay type): cell-based
In one experiment the test system is GLUT. Put plainly: glycolysis assay (oligomycin + Cell Titer-Glo ATP readout) in HT1080 cells. To be noted: 10 μM oligomycin, one hour, glycolytically-derived ATP. From the text: The combination of inhibitors of both oxidative phosphorylation and glycolysis synergistically suppress cellular ATP levels. Therefore, our assay utilizes the combination of our glucose uptake inhibitors with oligomycin, a well-characterized inhibitor of ATP synthase. Because oligomycin inhibits ATP derived from oxidative phosphorylation, any remaining ATP production is derived from glycolysis. By reading out cellular ATP levels using the Promega
Titer Glo kit, we can assess the extent of glycolysis inhibition by our glucose uptake inhibitors. Using this experimental set-up in HT1080 cancer cells, we determined the IC50 of glycolysis inhibition for the compounds.
(§1) Determination of glucose uptake/GLUT activity (glycolysis assay): HT1080 cells, DLD1 cells (WT and GLUT1−/−) and human CD4+ T cells were plated in 96-well plates. Cells were exposed to the combination of 10 μM Oligomycin (to block mitochondrial-derived ATP) and the glucose uptake inhibitors disclosed herein for one-hour, after which glycolytically-derived ATP was measured with the Cell Titer-Glo assay kit (Promega). Dose-response curves of the glucose uptake inhibitors disclosed herein were used to determine the IC50 for GLUT activity.
Background: Cellular ATP, detected with luciferase, serves as a proxy for viable cell number.

For another experiment, the target named is T1, GLUT1 (Homo sapiens, UniProt P11166).
T1 construct: endogenous in cells; host or cells: DLD1 WT cancer cells
T1 sequence (P11166 1-492): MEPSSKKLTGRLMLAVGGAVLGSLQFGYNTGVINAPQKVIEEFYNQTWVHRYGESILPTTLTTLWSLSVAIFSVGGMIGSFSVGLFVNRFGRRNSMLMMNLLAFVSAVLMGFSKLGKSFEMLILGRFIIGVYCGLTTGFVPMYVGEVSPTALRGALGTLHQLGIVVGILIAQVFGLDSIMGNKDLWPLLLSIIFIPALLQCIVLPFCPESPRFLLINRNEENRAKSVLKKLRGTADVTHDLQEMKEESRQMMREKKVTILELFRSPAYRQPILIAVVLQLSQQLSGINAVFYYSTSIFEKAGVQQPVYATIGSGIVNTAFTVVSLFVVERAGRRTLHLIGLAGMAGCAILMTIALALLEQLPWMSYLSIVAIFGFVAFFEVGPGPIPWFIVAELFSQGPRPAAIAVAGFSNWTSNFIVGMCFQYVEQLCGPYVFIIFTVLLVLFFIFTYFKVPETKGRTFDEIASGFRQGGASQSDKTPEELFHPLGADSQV
As to the kind of experiment: glycolysis assay in DLD1 WT cells (rely on GLUT1). To be noted: DLD1-WT cells; 10 μM oligomycin, one hour. The procedure: (§2) Cells were treated with GLUT inhibitors plus oligomycin and subsequently ATP levels were determined using Cell Titer Glo. […] FIG. 1B reports the IC50 of glycolysis inhibition for selected compounds.
(§3) Accordingly, we have investigated the use of inhibitors of GLUT transporters against activated pro-inflammatory immune cells, including but not limited to activated human CD4+ T cells. In order to understand what GLUT transporters are required to sustain glycolysis in activated T cells, we first utilized the syngeneic cancer cell lines DLD1 WT and DLD GLUT1−/− that rely on GLUT1 and GLUT3 expression, respectively, for glucose transport. Within this system, we have identified small molecules that simultaneously have the property of inhibiting both GLUT1 and GLUT3 mediated glucose transport. In addition, we have confirmed the GLUT1-selective nature of a published small molecule inhibitor of GLUT1 (Chem Med Chem. 2016 Oct. 19; 11(20):2261-2271).
as §1

A further experiment addresses T2, GLUT3 (Homo sapiens, UniProt P11169).
T2 construct: endogenous in cells; host or cells: DLD1 GLUT1−/− (knock-out) cancer cells
T2 sequence (P11169 1-496): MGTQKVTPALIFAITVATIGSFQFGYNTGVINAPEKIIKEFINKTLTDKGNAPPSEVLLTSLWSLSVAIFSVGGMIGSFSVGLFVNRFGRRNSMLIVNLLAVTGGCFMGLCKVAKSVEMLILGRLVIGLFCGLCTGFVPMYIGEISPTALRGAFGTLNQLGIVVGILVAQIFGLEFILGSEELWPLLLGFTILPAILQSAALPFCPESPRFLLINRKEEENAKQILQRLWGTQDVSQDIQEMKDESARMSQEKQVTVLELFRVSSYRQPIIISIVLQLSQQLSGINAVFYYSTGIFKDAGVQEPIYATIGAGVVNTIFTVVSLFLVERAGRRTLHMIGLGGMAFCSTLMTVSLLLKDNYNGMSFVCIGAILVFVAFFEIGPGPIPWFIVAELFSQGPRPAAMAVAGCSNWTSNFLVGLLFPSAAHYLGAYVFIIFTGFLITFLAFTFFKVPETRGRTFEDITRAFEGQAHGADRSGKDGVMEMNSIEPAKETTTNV
Put plainly: glycolysis assay in DLD1 GLUT1−/− cells (rely on GLUT3). The note with it: DLD1-KO (GLUT1−/−) cells; 10 μM oligomycin, one hour. The procedure: as §2, §3, §1

The IC50 is the concentration at which inhibition is half-maximal. With `COc1ccc2nc(-c3cccc(OCC(=O)NC(C)C)c3)nc(Nc3ccc(-c4cn[nH]c4)cc3F)c2c1` [Ex. 20, 2-(3-(4-((2-fluoro-4-(1H-pyrazol-4-yl)phenyl)amino)-6-methoxyquinazolin-2-yl)phenoxy)-N-isopropylacetamide], the IC50 with GLUT is 423 nM; on GLUT1, 709 nM; on GLUT3, 177 nM.

`CCOc1ccc2nc(-c3cccc(OCC(=O)NC(C)C)c3)nc(Nc3ccc(-c4cn[nH]c4)cc3F)c2c1` [Ex. 21, 2-(3-(6-ethoxy-4-((2-fluoro-4-(1H-pyrazol-4-yl)phenyl)amino)quinazolin-2-yl)phenoxy)-N-isopropylacetamide]: the IC50 in the experiment with GLUT turned out to be 408 nM; at GLUT1, 786 nM; on GLUT3 it was 248 nM.

Turning to `CCC(C)NC(=O)COc1cccc(-c2nc(Nc3ccc(-c4cn[nH]c4)cc3)c3cc(OC)ccc3n2)c1` (stereo not drawn) [Ex. 22, 2-(3-(4-((4-(1H-pyrazol-4-yl)phenyl)amino)-6-methoxyquinazolin-2-yl)phenoxy)-N-(sec-butyl)acetamide], the IC50 in the experiment on GLUT turned out to be 112 nM; at GLUT1, 105 nM; at GLUT3, 66.8 nM.

As for `COc1ccc2nc(-c3cccc(OCC(=O)NC(CF)CF)c3)nc(Nc3ccc(-c4cn[nH]c4)cc3)c2c1` [Ex. 23, 2-(3-(4-((4-(1H-pyrazol-4-yl)phenyl)amino)-6-methoxyquinazolin-2-yl)phenoxy)-N-(1,3-difluoropropan-2-yl)acetamide], the values for the IC50 in the experiment on GLUT, on GLUT1 and on GLUT3 were 258 nM, 463 nM and 110 nM, respectively.

Consider `CCOc1ccc2nc(-c3cccc(OCC(=O)NCC(F)(F)F)c3)nc(Nc3ccc(-c4cn[nH]c4)cc3)c2c1` [Ex. 24, 2-(3-(4-((4-(1H-pyrazol-4-yl)phenyl)amino)-6-ethoxyquinazolin-2-yl)phenoxy)-N-(2,2,2-trifluoroethyl)acetamide], for which the IC50 with GLUT stood at 454 nM; on GLUT1 it was 801 nM; at GLUT3, 86 nM.

For `COc1ccc2nc(-c3cccc(OCC(=O)NCC(F)(F)F)c3)nc(Nc3ccc(-c4cn[nH]c4)cc3)c2c1` [Ex. 25, 2-(3-(4-((4-(1H-pyrazol-4-yl)phenyl)amino)-6-methoxyquinazolin-2-yl)phenoxy)-N-(2,2,2-trifluoroethyl)acetamide], the IC50 in the experiment on GLUT came out at 433 nM; at GLUT1 it was 1070 nM; on GLUT3 it was 68.4 nM.

For the compound `CCOc1ccc2nc(-c3cccc(OCC(=O)NC(C)(C)C)c3)nc(Nc3ccc(-c4cc[nH]n4)cc3)c2c1` [Ex. 27, 2-(3-(4-((4-(1H-Pyrazol-3-yl)phenyl)amino)-6-ethoxyquinazolin-2-yl)phenoxy)-N-(tert-butyl)acetamide], the results for the half-maximal inhibitory concentration (IC50) in the experiment with GLUT, at GLUT1 and on GLUT3 were 310 nM, 252 nM and 116 nM, respectively.

With `CCOc1ccc2nc(-c3cccc(OCC(=O)NC(C)C)c3)nc(Nc3ccc(-c4cc[nH]n4)cc3)c2c1` [Ex. 28, 2-(3-(4-((4-(1H-Pyrazol-3-yl)phenyl)amino)-6-ethoxyquinazolin-2-yl)phenoxy)-N-isopropylacetamide], the IC50 in the experiment on GLUT was 545 nM; on GLUT1 it was 496 nM; at GLUT3, 105 nM.

As to `CC(C)(C)NC(=O)COc1cccc(-c2nc(Nc3ccc(-c4cn[nH]c4)cc3)c3cc(F)ccc3n2)c1` [Ex. 29, 2-(3-(4-((4-(1H-Pyrazol-4-yl)phenyl)amino)-6-fluoroquinazolin-2-yl)phenoxy)-N-(tert-butyl)acetamide], the results for the IC50 with GLUT, at GLUT1 and on GLUT3 were 123 nM, 124 nM and 142 nM, respectively.

As for `CC(C)(C)NC(=O)COc1cccc(-c2nc(Nc3ccc(-c4cn[nH]c4)cc3)c3ccc(F)cc3n2)c1` [Ex. 30, 2-(3-(4-((4-(1H-Pyrazol-4-yl)phenyl)amino)-7-fluoroquinazolin-2-yl)phenoxy)-N-(tert-butyl)acetamide], the IC50 with GLUT is 425 nM; at GLUT1, 624 nM; at GLUT3, 195 nM.

In the case of `COCCOc1ccc2nc(-c3cccc(OCC(=O)NC(C)C)c3)nc(Nc3ccc(-c4cn[nH]c4)cc3)c2c1` [Ex. 31, 2-(3-(4-((4-(1H-Pyrazol-4-yl)phenyl)amino)-6-(2-methoxyethoxy)quinazolin-2-yl)phenoxy)-N-isopropylacetamide], the IC50 stood at 53.5 nM with GLUT, 62.1 nM on GLUT1 and 59.2 nM on GLUT3.

In the case of `CCCOc1ccc2nc(-c3cccc(OCC(=O)NC(C)C)c3)nc(Nc3ccc(-c4cn[nH]c4)cc3)c2c1` [Ex. 32, 2-(3-(4-((4-(1H-Pyrazol-4-yl)phenyl)amino)-6-propoxyquinazolin-2-yl)phenoxy)-N-isopropylacetamide], the values for the IC50 in the experiment with GLUT, on GLUT1 and on GLUT3 were 188 nM, 178 nM and 305 nM, respectively.

In the case of `CC(C)NC(=O)COc1cccc(-c2nc(Nc3ccc(-c4cn[nH]c4)cc3)c3cc(F)ccc3n2)c1` [Ex. 33, 2-(3-(4-((4-(1H-pyrazol-4-yl)phenyl)amino)-6-fluoroquinazolin-2-yl)phenoxy)-N-isopropylacetamide], the 50% inhibitory concentration (IC50) in the experiment on GLUT was 424 nM; on GLUT1, 802 nM; on GLUT3 it was 183 nM.

For `CC(C)NC(=O)COc1cccc(-c2nc(Nc3ccc(-c4cn[nH]c4)cc3)c3ccc(F)cc3n2)c1` [Ex. 34, 2-(3-(4-((4-(1H-Pyrazol-4-yl)phenyl)amino)-7-fluoroquinazolin-2-yl)phenoxy)-N-isopropylacetamide], the concentration for half-maximal inhibition (IC50) in the experiment with GLUT was determined as 418 nM; at GLUT1, 797 nM; at GLUT3, 197 nM.

With `CCOc1ccc2nc(-c3cccc(OCC(=O)N[C@@H](C)CC)c3)nc(Nc3ccc(-c4cn[nH]c4)cc3)c2c1` [Ex. 35, (S)-2-(3-(4-((4-(1H-Pyrazol-4-yl)phenyl)amino)-6-ethoxyquinazolin-2-yl)phenoxy)-N-(sec-butyl)acetamide], the IC50 in the experiment on GLUT is 134 nM; on GLUT1, 130 nM; on GLUT3, 94.2 nM.

In the case of `CCOc1ccc2nc(-c3cccc(OCC(=O)N[C@H](C)CC)c3)nc(Nc3ccc(-c4cn[nH]c4)cc3)c2c1` [Ex. 36, (R)-2-(3-(4-((4-(1H-Pyrazol-4-yl)phenyl)amino)-6-ethoxyquinazolin-2-yl)phenoxy)-N-(sec-butyl)acetamide], the IC50 in the experiment on GLUT came out at 137 nM; on GLUT1, 116 nM; at GLUT3 it was 130 nM.

As to `CCCOc1ccc2nc(-c3cccc(OCC(=O)NC(C)(C)C)c3)nc(Nc3ccc(-c4cn[nH]c4)cc3)c2c1` [Ex. 37, 2-(3-(4-((4-(1H-Pyrazol-4-yl)phenyl)amino)-6-propoxyquinazolin-2-yl)phenoxy)-N-(tert-butyl)acetamide], the IC50 in the experiment on GLUT stood at 128 nM; on GLUT1, 89.3 nM; on GLUT3, 158 nM.

As to `CC(C)(C)NC(=O)COc1cccc(-c2nc(Nc3ccc(-c4cn[nH]c4)cc3)c3cc(OCCF)ccc3n2)c1` [Ex. 38, 2-(3-(4-((4-(1H-Pyrazol-4-yl)phenyl)amino)-6-(2-fluoroethoxy)quinazolin-2-yl)phenoxy)-N-(tert-butyl)acetamide], the concentration for half-maximal inhibition (IC50) worked out at 60.8 nM with GLUT, 65.7 nM on GLUT1 and 51.5 nM at GLUT3.
